Source: patent US20230292755A1, “USE OF A GLYCINE BETAINE DERIVATIVE AS A PEDICULICIDAL AGENT” (priority 2020, published 2023)

Test system: lice (Pediculus humanus capitis)
Experiment: Efficacy test: aqueous solutions sprayed into boxes of lice, percentage of mortality evaluated (ECHA guidance)
Format: in vivo
Settings: sprayed aqueous solution at 3% by weight of dry matter; for Mortality rate (%): mean of 4 boxes of 25 lice
Protocol: The surfactant compositions prepared as described in examples 1 and 2 above were tested following the recommendations of the ECHA relating to the evaluation of the efficacy of biocidal products (Guidance on the Biocidal Products Regulation Volume II Efficacy—Assessment and Evaluation (Parts B+C), Version 3.0 April 2018).
These compositions were thus each sprayed, in the form of aqueous solutions at 3% by weight of dry matter, into 4 boxes each including 25 lice (Pediculus humanus capitis), then the percentage of mortality was evaluated after 5, 10 and 15 min. The mean of the results obtained in the 4 boxes was calculated.
The test presented in example 3 was reproduced using one and the same concentration of different cationic surfactants instead of the glycine betaine derivatives according to the invention.

| Compound | Mortality rate (%) (after 5 min) | Mortality rate (%) (after 10 min) | Mortality rate (%) (after 15 min) | time required to eliminate 100% of the lice [min] |
| --- | --- | --- | --- | --- |
| CCCCCCCCCCCC[N+](C)(C)C.[Cl-] [Dodecyltrimethylammonium chloride] | 49 | 78 | 91 | 30 |
| CCCCCCCCCCCCCCCC[N+](C)(C)C.[Cl-] [Cetrimonium chloride] | 79 | 94 | 100 | – |
| Benzalkonium chloride | 70 | 80 | 82 | 60 |
